Reference: patent US20260137706A1, “METHODS OF TREATING INFLAMMATORY DISEASES” (INTERLINE THERAPEUTICS, INC., priority 2023, published 2026)

Assays:
[1] = target: T1, GST-RIPK2 fusion protein (human RIPK2, amino acids 1-310) (Homo sapiens, UniProt O43353); assay: RIPK2 binding competition assay (TR-FRET, Tracer 199 displacement); conditions: 10 nM Tracer 199, 1 nM GST-RIPK2, read-out: RIPK2 IC50
T1 construct: made in house; host or cells: baculovirus infected Sf9 cells
Source text: The ability of selected compounds of Formula (I) to inhibit the binding of an Alexa647-labelled ATP-competitive kinase inhibitor to a GST-RIPK2 fusion protein was quantified employing the TR-FRET-based RIPK2 binding competition assay as described in the following paragraphs.
Recombinant fusion protein of N-terminal Glutathione-S-Transferase (GST) and a fragment of human RIPK2 (amino acids 1-310 of accession number 043353), expressed in baculovirus infected Sf9 cells, purified via glutathione affinity chromatography, was used as GST-RIPK2 fusion protein. Tracer 199 from Life Technologies (catalogue no. PR9115B) was used as Alexa647-labelled ATP-competitive kinase inhibitor.
For the assay, 50 nL of a 100-fold concentrated solution of each test compound in DMSO was pipetted into either a black low volume 384-well microtiter plate or a black 1536-well microtiter plate (both Greiner Bio-One, Frickenhausen, Germany), 3 μL solution of Tracer 199 (16.7 nM=>final concentration in 5 μL assay volume is 10 nM) in aqueous assay buffer (25 mM Tris/HCl pH 7.5, 10 mM magnesium chloride (MgCl2), 5 mM β-glycerophosphate, 2.5 mM dithiothreitol (DTT), 0.5 mM ethylene glycol-bis(2-aminoethylether)-N,N,N′,N′-tetraacetic acid (EGTA), 0.5 mM sodium ortho-vanadate, 0.01% (w/v) bovine serum albumin (BSA), 0.005% (w/v) Pluronic F-127 (Sigma)) were added. Then the binding competition was started by the addition of 2 μL of a solution of the GST-RIPK2 fusion protein (2.5 nM=>final conc. in the 5 μL assay volume is 1 nM) and of Anti-GST-Tb (1.25 nM=>final conc. in the 5 μL assay volume is 0.5 nM), a Lumi4®—Tb cryptate-conjugated anti-GST antibody from PerkinElmer (catalogue no 61GSTTAH), in assay buffer.
The resulting mixture was incubated 45 min at 22° C. to allow the formation of a complex between the Tracer 199, the fusion protein and Anti-GST-Tb. Subsequently, the amount of this complex was evaluated by measurement of the resonance energy transfer from the Tb-cryptate to the Tracer 199. Therefore, the fluorescence emissions at 620 nm and 665 nm after excitation at 337 nm were measured in a TR-FRET reader, e.g. a Pherastar FS (BMG Labtechnologies, Offenburg, Germany) or a Viewlux (PerkinElmer). The ratio of the emissions at 665 nm and at 620 nm was taken as the measure of the amount of the complex. The data were normalized (assay reaction without inhibitor=0% activity, all other assay components but no GST-RIPK2 fusion protein=−100% activity).
Table A1 below lists IC50 values of selected compounds of Formula (I) measured in the RIPK2 binding competition assay.

[2] = target: T2, binding of His-XIAP(BIR2)-avi fusion protein to GST-RIPK2 fusion protein (RIPK2/XIAP) (Homo sapiens, UniProt O43353); assay: RIPK2-XIAP binding competition PPI assay (TR-FRET); conditions: RIPK2/XIAP binding competition PPI assay; for Emax: Amax, read-out: PPI Amax bin; for IC50: read-out: PPI IC50 bin
T2 construct: made in house; host or cells: baculovirus infected Sf9 cells
T2 sequence (O43353 1-310 limits assumed): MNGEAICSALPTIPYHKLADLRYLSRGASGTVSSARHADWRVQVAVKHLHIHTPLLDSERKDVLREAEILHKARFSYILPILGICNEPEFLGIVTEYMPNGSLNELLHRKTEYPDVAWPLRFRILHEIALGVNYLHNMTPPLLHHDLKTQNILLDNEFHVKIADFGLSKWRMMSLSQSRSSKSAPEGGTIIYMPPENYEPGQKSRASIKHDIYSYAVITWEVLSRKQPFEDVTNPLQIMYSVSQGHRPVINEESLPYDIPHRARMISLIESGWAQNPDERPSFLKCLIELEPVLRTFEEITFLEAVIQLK
Summary of the method: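 Compounds (in DMSO, 100-fold stock) incubated 120 min at 23 °C with 1 nM GST-RIPK2 (aa 1-310) and 25 nM His-XIAP(BIR2 aa 152-231)-avi, plus anti-His-XL665 and anti-GST-Tb, in pH 7.5 Tris buffer. Read-out: 665/520 nm emission ratio. Normalized to no-inhibitor (0%) and 50 nM GSK583 (−100%); Amax binned A–D.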

[3] = tested on: NF-κB pathway (SEAP) in THP1-Dual cells; assay: THP-1 Dual cell SEAP assay (L18-MDP stimulated); format: cell-based; conditions: Homo sapiens, THP1-Dual, read-out: NF-κB THP1 IC50 bin
Summary of the method: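 IC50 values derive from non-linear regression of % inhibition, calculated against DMSO/L18-MDP-treated wells after media-only subtraction. NF-κB SEAP activity was read at OD 620-655 nm (QUANTI-Blue, 2 h, 37 °C) from supernatants of THP1-Dual cells. Cells had been compound-treated 30 min before overnight (20-24 h) stimulation with 10 ng/mL final L18-MDP.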

T1 sequence (O43353 1-310): as the sequence (O43353 1-310 limits assumed) above

SMILES | IC50 [1] | Emax [2] | IC50 [2] | IC50 [3]
Cn1cc(COc2cc3ncc(-c4cc(F)c(N)nc4F)n3cc2S(=O)(=O)C(C)(C)C)cn1 [Example 30, 5-(6-(tert-butylsulfonyl)-7-((1-methyl-1H-pyrazol-4-yl)methoxy)imidazo[1,2-a]pyridin-3-yl)-3,6-difluoropyridin-2-amine] | 2.5 to 20 nM | > 80% | 2.5 to 20 nM | 50 to 250 nM
CC(C)(C)S(=O)(=O)c1cn2c(-c3cc(F)c(N)nc3F)cnc2cc1-c1cn[nH]c1 [Example 31, 5-(6-(tert-butylsulfonyl)-7-(1H-pyrazol-4-yl)imidazo[1,2-a]pyridin-3-yl)-3,6-difluoropyridin-2-amine] | 2.5 to 20 nM | > 80% | 2.5 to 20 nM | > 1000 nM
CC(C)(C)S(=O)(=O)c1cn2c(-c3cc(F)c(N)nc3F)cnc2cc1OCC1COC1 [Example 32, 5-(6-(tert-butylsulfonyl)-7-(oxetan-3-ylmethoxy)imidazo[1,2-a]pyridin-3-yl)-3,6-difluoropyridin-2-amine] | 1 to 2.5 nM | > 80% | 2.5 to 20 nM | 50 to 250 nM
CC(C)(C)S(=O)(=O)c1cn2c(-c3cc(F)c(N)nc3F)cnc2cc1OC1COC1 [Example 33, 5-(6-(tert-butylsulfonyl)-7-(oxetan-3-yloxy)imidazo[1,2-a]pyridin-3-yl)-3,6-difluoropyridin-2-amine] | 2.5 to 20 nM | > 80% | 2.5 to 20 nM | > 1000 nM
C[C@H](O)CCOc1cc2ncc(-c3cc(F)c(N)nc3F)n2cc1S(=O)(=O)C(C)(C)C [Example 34, (S)-4-((3-(6-amino-2,5-difluoropyridin-3-yl)-6-(tert-butylsulfonyl)imidazo[1,2-a]pyridin-7-yl)oxy)butan-2-ol] | 2.5 to 20 nM | > 80% | 2.5 to 20 nM | 250 to 1000 nM
COC1(COc2cc3ncc(-c4cc(F)c(N)nc4F)n3cc2S(=O)(=O)C(C)(C)C)COC1 [Example 35, 5-(6-(tert-butylsulfonyl)-7-((3-methoxyoxetan-3-yl)methoxy)imidazo[1,2-a]pyridin-3-yl)-3,6-difluoropyridin-2-amine] | 2.5 to 20 nM | > 80% | 2.5 to 20 nM | 250 to 1000 nM
C[C@@H](O)CCOc1cc2ncc(-c3cc(F)c(N)nc3F)n2cc1S(=O)(=O)C(C)(C)C [Example 36, (R)-4-((3-(6-amino-2,5-difluoropyridin-3-yl)-6-(tert-butylsulfonyl)imidazo[1,2-a]pyridin-7-yl)oxy)butan-2-ol] | 1 to 2.5 nM | > 80% | 2.5 to 20 nM | 50 to 250 nM
CC(C)(C)S(=O)(=O)c1cn2c(-c3cc(F)c(N)nc3F)cnc2cc1-c1cc[nH]n1 [Example 37, 5-(6-(tert-butylsulfonyl)-7-(1H-pyrazol-3-yl)imidazo[1,2-a]pyridin-3-yl)-3,6-difluoropyridin-2-amine] | > 20 nM | > 80% | > 20 nM | > 1000 nM
CC(C)(C)S(=O)(=O)c1cn2c(-c3cc(F)c(N)nc3F)cnc2cc1OCC1(O)COC1 [Example 38, 3-(((3-(6-amino-2,5-difluoropyridin-3-yl)-6-(tert-butylsulfonyl)imidazo[1,2-a]pyridin-7-yl)oxy)methyl)oxetan-3-ol] | 1 to 2.5 nM | > 80% | 2.5 to 20 nM | 50 to 250 nM
CC(C)(C)S(=O)(=O)c1cn2c(-c3cc(F)c(N)nc3F)cnc2cc1CO [Example 39, (3-(6-amino-2,5-difluoropyridin-3-yl)-6-(tert-butylsulfonyl)imidazo[1,2-a]pyridin-7-yl)methanol] | > 20 nM | > 80% | > 20 nM | > 1000 nM
COc1cc2nc(N)c(-c3cc(F)c(N)nc3F)n2cc1S(=O)(=O)C(C)(C)C [Example 40, 3-(6-amino-2,5-difluoropyridin-3-yl)-6-(tert-butylsulfonyl)-7-methoxyimidazo[1,2-a]pyridin-2-amine] | > 20 nM | 55 to 80% | > 20 nM | > 1000 nM
CC(C)(C)S(=O)(=O)c1cn2c(-c3cc(F)c(N)nc3F)cnc2cc1OCCN1CC(O)C1 [Example 41, 1-(2-((3-(6-amino-2,5-difluoropyridin-3-yl)-6-(tert-butylsulfonyl)imidazo[1,2-a]pyridin-7-yl)oxy)ethyl)azetidin-3-ol] | 2.5 to 20 nM | > 80% | 2.5 to 20 nM | > 1000 nM
CN(C)C(=O)c1cc2ncc(-c3cc(F)c(N)nc3F)n2cc1S(=O)(=O)C(C)(C)C [Example 42, 3-(6-amino-2,5-difluoropyridin-3-yl)-6-(tert-butylsulfonyl)-N,N-dimethylimidazo[1,2-a]pyridine-7-carboxamide] | > 20 nM | 55 to 80% | > 20 nM | > 1000 nM
CC(C)(C)S(=O)(=O)c1cn2c(-c3cc(F)c(N)nc3F)cnc2cc1OC1CCN(CCO)C1 (stereo not shown) [Example 43, 2-(3-((3-(6-amino-2,5-difluoropyridin-3-yl)-6-(tert-butylsulfonyl)imidazo[1,2-a]pyridin-7-yl)oxy)pyrrolidin-1-yl)ethan-1-ol] | 2.5 to 20 nM | > 80% | 2.5 to 20 nM | > 1000 nM
CC(C)(C)S(=O)(=O)c1cn2c(-c3cc(F)c(N)nc3F)cnc2cc1C(=O)NCCO [Example 44, 3-(6-amino-2,5-difluoropyridin-3-yl)-6-(tert-butylsulfonyl)-N-(2-hydroxyethyl)imidazo[1,2-a]pyridine-7-carboxamide] | > 20 nM | > 80% | > 20 nM | > 1000 nM
C[C@H](O)COc1cn2ncc(-c3cc(F)c(N)nc3F)c2cc1S(=O)(=O)C(C)(C)C [Example 45, (S)-1-((3-(6-amino-2,5-difluoropyridin-3-yl)-5-(tert-butylsulfonyl)pyrazolo[1,5-a]pyridin-6-yl)oxy)propan-2-ol] | 1 to 2.5 nM | > 80% | 1 to 2.5 nM | 50 to 250 nM
C[C@H](O)COc1cn2ncc(-c3cc(Cl)c(N)nc3F)c2cc1S(=O)(=O)C(C)(C)C [Example 46, (S)-1-((3-(6-amino-5-chloro-2-fluoropyridin-3-yl)-5-(tert-butylsulfonyl)pyrazolo[1,5-a]pyridin-6-yl)oxy)propan-2-ol] | 1 to 2.5 nM | > 80% | 1 to 2.5 nM | 50 to 250 nM
CC(C)(CO)COc1cc2ncc(-c3cc(F)c(N)nc3F)n2cc1S(=O)(=O)C(C)(C)C [Example 47, 3-((3-(6-amino-2,5-difluoropyridin-3-yl)-6-(tert-butylsulfonyl)imidazo[1,2-a]pyridin-7-yl)oxy)-2,2-dimethylpropan-1-ol] | 1 to 2.5 nM | > 80% | 1 to 2.5 nM | 50 to 250 nM
CCC(CO)COc1cc2ncc(-c3cc(F)c(N)nc3F)n2cc1S(=O)(=O)C(C)(C)C (stereo not shown) [Example 48, 2-(((3-(6-amino-2,5-difluoropyridin-3-yl)-6-(tert-butylsulfonyl)imidazo[1,2-a]pyridin-7-yl)oxy)methyl)butan-1-ol] | 1 to 2.5 nM | > 80% | 2.5 to 20 nM | 50 to 250 nM
